Reference: US11331299B2, “Medicinal use of serrulatane diterpenes” (The University of Sydney, priority 2016, dated 2022)
Where two headings read alike, the source gives them in different places.

Test system: 280 human cancer cell lines
Assay: OncoPanel cell proliferation assay (10-day)
Format: cell-based
Conditions: for EC50: read-out: Cell Count EC50; for IC50: read-out: Cell Count IC50
[1] = Homo sapiens, 22Rv1, 22Rv1, Prostate
[2] = Homo sapiens, 786-0, 786-O, Kidney
[3] = Homo sapiens, A7, Skin (Melanoma)
[4] = Homo sapiens, A 172, A172, CNS - Glioma
[5] = Homo sapiens, A253, A-253, Head and Neck
[6] = Homo sapiens, A388, Head and Neck
[7] = Homo sapiens, A498, A498, Kidney
[8] = Homo sapiens, A549, A549, Lung - NSCLC
[9] = Homo sapiens, A673, A-673, Soft Tissue - Sarcoma
[10] = Homo sapiens, A704, A-704, Kidney
[11] = Homo sapiens, A-375, A375, Skin (Melanoma)
[12] = Homo sapiens, A-427, A427, Lung - NSCLC
[13] = Homo sapiens, A-431, A431, Head and Neck
[14] = Homo sapiens, AN3-CA, AN3 CA, Female GU - Uterus
[15] = Homo sapiens, ARH-77, ARH-77, Myeloma
[16] = Homo sapiens, ASPC1, AsPC-1, Pancreas
[17] = Homo sapiens, AU565, AU565, Breast
[18] = Homo sapiens, BCP-1, BCP-1, Lymphoma
[19] = Homo sapiens, BE(2)-C, BE(2)C, CNS - Neuroblastoma
[20] = Homo sapiens, BFTC-905, BFTC-905, Bladder
[21] = Homo sapiens, BHT-101, BHT-101, Endocrine - Thyroid
[22] = Homo sapiens, BM-1604, BM-1604, Prostate
[23] = Homo sapiens, BPH-1, BPH1, Prostate
[24] = Homo sapiens, BT-20, BT20, Breast

In the case of `CC(C)=CCC[C@H](CO)[C@@H]1CC[C@@H](C)c2c1cc(C)c(O)c2O` [Compound 1, 7,8,18-trihydroxyserrulat-14-ene], the “Number of cell types, GI Activity Potent” value (GI50 range 0.03-0.099 μM, of 280 cell types) is reported as 0, the “Number of cell types, GI Activity moderately potent” value (GI50 range 0.1-0.99 μM, of 280 cell types) is reported as 23 and the “Number of cell types, GI Activity Strong” value (GI50 range 1-2.99 μM, of 280 cell types) is reported as 149. For the same compound, the “Number of cell types, GI Activity moderately strong” value (GI50 range 3-9.99 μM, of 280 cell types) was 99, the “Number of cell types, GI Activity weak” value (GI50 range 10-30.00 μM, of 280 cell types) was 6 and the “Number of cell types, GI Activity very weak” value (GI50 range >30 μM, of 280 cell types) was 1. It also gave an EC50 [1] of 4080 nM, a GI50 (Homo sapiens, 22Rv1, 22Rv1, Prostate, read-out: Cell Count GI50) of 4060 nM and an IC50 [1] of 4080 nM. For the same compound, the GI50 (Homo sapiens, 149 cell lines with strong activity, read-out: GI50) was 1000 to 2980 nM, the GI50 (Homo sapiens, 174 cell lines with very potent to strong activity, read-out: GI50) was 6 to 2980 nM and the EC50 (Homo sapiens, 647-V, Bladder) was 3120 nM. The GI50 (Homo sapiens, 647-V, Bladder, read-out: Cell Count GI50) was 3110 nM, the IC50 (Homo sapiens, 647-V, Bladder) was 3120 nM and the EC50 (Homo sapiens, 769-P, Kidney) was 850 nM. The GI50 (Homo sapiens, 769-P, Kidney, read-out: Cell Count GI50) was 850 nM, the IC50 (Homo sapiens, 769-P, Kidney) was 850 nM and the EC50 [2] was 2050 nM. It also gave a GI50 (Homo sapiens, 786-0, 786-O, Kidney, read-out: Cell Count GI50) of 2050 nM, an IC50 [2] of 2050 nM and an EC50 (Homo sapiens, 5637, Bladder) of 3380 nM. For the same compound, the GI50 (Homo sapiens, 5637, Bladder, read-out: Cell Count GI50) was 3320 nM, the IC50 (Homo sapiens, 5637, Bladder) was 3380 nM and the EC50 [3] was 940 nM. It also gave a GI50 (Homo sapiens, A7, Skin (Melanoma), read-out: Cell Count GI50) of 940 nM, an IC50 [3] of 940 nM and an EC50 (Homo sapiens, A101D) of 8420 nM. For the same compound, the GI50 (Homo sapiens, A101D, read-out: Cell Count GI50) was 8250 nM, the IC50 (Homo sapiens, A101D) was 8420 nM and the EC50 [4] was 1120 nM. For the same compound, the GI50 (Homo sapiens, A 172, A172, CNS - Glioma, read-out: Cell Count GI50) was 1140 nM, the IC50 [4] was 1150 nM and the EC50 [5] was 4130 nM. For the same compound, the GI50 (Homo sapiens, A253, A-253, Head and Neck, read-out: Cell Count GI50) was 4130 nM, the IC50 [5] was 4140 nM and the EC50 [6] was 1660 nM. It also gave a GI50 (Homo sapiens, A388, Head and Neck, read-out: Cell Count GI50) of 1660 nM, an IC50 [6] of 1670 nM and an EC50 [7] of 1290 nM. For the same compound, the GI50 (Homo sapiens, A498, A498, Kidney, read-out: Cell Count GI50) was 1290 nM, the IC50 [7] was 1290 nM and the EC50 [8] was 1660 nM. For the same compound, the GI50 (Homo sapiens, A549, A549, Lung - NSCLC, read-out: Cell Count GI50) was 1660 nM, the IC50 [8] was 1670 nM and the EC50 [9] was 1540 nM. For the same compound, the GI50 (Homo sapiens, A673, A-673, Soft Tissue - Sarcoma, read-out: Cell Count GI50) was 1540 nM, the IC50 [9] was 1550 nM and the EC50 [10] was 1570 nM. For the same compound, the GI50 (Homo sapiens, A704, A-704, Kidney, read-out: Cell Count GI50) was 1540 nM, the IC50 [10] was 1600 nM and the EC50 [11] was 1050 nM. The GI50 (Homo sapiens, A-375, A375, Skin (Melanoma), read-out: Cell Count GI50) was 1050 nM, the IC50 [11] was 1050 nM and the EC50 [12] was 4520 nM. For the same compound, the GI50 (Homo sapiens, A-427, A427, Lung - NSCLC, read-out: Cell Count GI50) was 4500 nM, the IC50 [12] was 4520 nM and the EC50 [13] was 2800 nM. It also gave a GI50 (Homo sapiens, A-431, A431, Head and Neck, read-out: Cell Count GI50) of 2800 nM, an IC50 [13] of 2810 nM and an EC50 (Homo sapiens, ACHN, Kidney) of 1740 nM. The GI50 (Homo sapiens, ACHN, Kidney, read-out: Cell Count GI50) was 1740 nM, the IC50 (Homo sapiens, ACHN, Kidney) was 1740 nM and the EC50 (Homo sapiens, AGS, Stomach) was 700 nM. For the same compound, the GI50 (Homo sapiens, AGS, Stomach, read-out: Cell Count GI50) was 700 nM, the IC50 (Homo sapiens, AGS, Stomach) was 700 nM and the EC50 [14] was 1520 nM. The GI50 (Homo sapiens, AN3-CA, AN3 CA, Female GU - Uterus, read-out: Cell Count GI50) was 1490 nM, the IC50 [14] was 1520 nM and the EC50 [15] was 1950 nM. For the same compound, the GI50 (Homo sapiens, ARH-77, ARH-77, Myeloma, read-out: Cell Count GI50) was 1950 nM, the IC50 [15] was 1970 nM and the EC50 [16] was 2870 nM. It also gave a GI50 (Homo sapiens, ASPC1, AsPC-1, Pancreas, read-out: Cell Count GI50) of 2840 nM, an IC50 [16] of 2870 nM and an EC50 [17] of 1620 nM. For the same compound, the GI50 (Homo sapiens, AU565, AU565, Breast, read-out: Cell Count GI50) was 1610 nM, the IC50 [17] was 1620 nM and the EC50 (Homo sapiens, BC-1, Lymphoma) was 1520 nM. It also gave a GI50 (Homo sapiens, BC-1, Lymphoma, read-out: Cell Count GI50) of 1510 nM, an IC50 (Homo sapiens, BC-1, Lymphoma) of 1520 nM and an EC50 [18] of 3180 nM. For the same compound, the GI50 (Homo sapiens, BCP-1, BCP-1, Lymphoma, read-out: Cell Count GI50) was 3140 nM, the IC50 [18] was 3180 nM and the EC50 [19] was 4230 nM. The GI50 (Homo sapiens, BE(2)-C, BE(2)C, CNS - Neuroblastoma, read-out: Cell Count GI50) was 4180 nM, the IC50 [19] was 4230 nM and the EC50 [20] was 1790 nM. For the same compound, the GI50 (Homo sapiens, BFTC-905, BFTC-905, Bladder, read-out: Cell Count GI50) was 1780 nM, the IC50 [20] was 1790 nM and the EC50 [21] was 2160 nM. The GI50 (Homo sapiens, BHT-101, BHT-101, Endocrine - Thyroid, read-out: Cell Count GI50) was 2170 nM, the IC50 [21] was 2170 nM and the EC50 [22] was 2580 nM. It also gave a GI50 (Homo sapiens, BM-1604, BM-1604, Prostate, read-out: Cell Count GI50) of 2560 nM, an IC50 [22] of 2580 nM and an EC50 [23] of 5240 nM. For the same compound, the GI50 (Homo sapiens, BPH-1, BPH1, Prostate, read-out: Cell Count GI50) was 5200 nM, the IC50 [23] was 5240 nM and the EC50 [24] was 1590 nM. The GI50 (Homo sapiens, BT-20, BT20, Breast, read-out: Cell Count GI50) was 1530 nM and the IC50 [24] was 1610 nM.
